Measurements reported in the supplement of paper PMC10883282.
± gives the standard deviation of the averaged measurements.

What was measured:
Test in all cases: relative viability vs DMSO control (72 h) (fraction); higher = more viable cells
[1] = system: A204
Procedure, shortened: (§1)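 ATPLite readings, expressed as percent growth and averaged over up to triplicate wells, provided relative viability. Before reading, sarcoma cell lines seeded in 384-well plates to reach 80–90% confluence received 2.5 µl of serially diluted compound after 24 h, from source plates of 10 mM to 0.0002 mM. Plates were held 72 h at 37 °C, 5% CO2, with 0.1% DMSO as vehicle and a 5 µM positive control. The data were rescaled to 1 for full and 0 for none.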

[2] = system: G401
Procedure, shortened: as §1

[3] = system: HS729
Procedure, shortened: as §1

[4] = system: HT1080
Procedure, shortened: as §1

[5] = system: KHOS-NP
Procedure, shortened: as §1

[6] = system: RD-ES
Procedure, shortened: as §1

[7] = system: SK-ES-1
Procedure, shortened: as §1

[8] = system: SK-LMS-1
Procedure, shortened: as §1

[9] = system: SW684
Procedure, shortened: as §1

[10] = system: SW872
Procedure, shortened: as §1

[11] = system: SW982
Procedure, shortened: as §1

[12] = system: VA-ES-BJ
Procedure, shortened: as §1

## COc1cc(OC)cc(N(CCNC(C)C)c2ccc3ncc(-c4cnn(C)c4)nc3c2)c1 [Erdafitinib]
[1]; 0.00017 µM
  relative viability: 1.04 ± 0.034
[1]; 0.00051 µM
  relative viability: 1.03 ± 0.011
[1]; 0.00152 µM
  relative viability: 0.971 ± 0.035
[1]; 0.00457 µM
  relative viability: 0.934 ± 0.057
[1]; 0.01372 µM
  relative viability: 0.746 ± 0.054
[1]; 0.04115 µM
  relative viability: 0.595 ± 0.045
[1]; 0.1235 µM
  relative viability: 0.422 ± 0.07
[1]; 0.3704 µM
  relative viability: 0.322 ± 0.085
[1]; 1.111 µM
  relative viability: 0.194 ± 0.0018
[1]; 3.333 µM
  relative viability: 0.127 ± 0.013
[1]; 10 µM
  relative viability: 0.0417 ± 0.0062
[2]; 0.00017 µM
  relative viability: 0.991 ± 0.018
[2]; 0.00051 µM
  relative viability: 0.976 ± 0.048
[2]; 0.00152 µM
  relative viability: 0.933 ± 0.032
[2]; 0.00457 µM
  relative viability: 0.806 ± 0.027
[2]; 0.01372 µM
  relative viability: 0.707 ± 0.038
[2]; 0.04115 µM
  relative viability: 0.591 ± 0.018
[2]; 0.1235 µM
  relative viability: 0.534 ± 0.017
[2]; 0.3704 µM
  relative viability: 0.472 ± 0.03
[2]; 1.111 µM
  relative viability: 0.376 ± 0.025
[2]; 3.333 µM
  relative viability: 0.233 ± 0.01
[2]; 10 µM
  relative viability: 0.121 ± 0.0045
[3]; 0.00017 µM
  relative viability: 1 ± 0.06
[3]; 0.00051 µM
  relative viability: 0.868 ± 0.015
[3]; 0.00152 µM
  relative viability: 0.844 ± 0.046
[3]; 0.00457 µM
  relative viability: 0.813 ± 0.081
[3]; 0.01372 µM
  relative viability: 0.74 ± 0.06
[3]; 0.04115 µM
  relative viability: 0.613 ± 0.036
[3]; 0.1235 µM
  relative viability: 0.604 ± 0.0076
[3]; 0.3704 µM
  relative viability: 0.549 ± 0.023
[3]; 1.111 µM
  relative viability: 0.487 ± 0.012
[3]; 3.333 µM
  relative viability: 0.423 ± 0.015
[3]; 10 µM
  relative viability: 0.37 ± 0.011
[4]; 0.00017 µM
  relative viability: 1.06 ± 0.028
[4]; 0.00051 µM
  relative viability: 1.09 ± 0.049
[4]; 0.00152 µM
  relative viability: 1.05 ± 0.051
[4]; 0.00457 µM
  relative viability: 1.07 ± 0.029
[4]; 0.01372 µM
  relative viability: 1.02 ± 0.044
[4]; 0.04115 µM
  relative viability: 1.05 ± 0.038
[4]; 0.1235 µM
  relative viability: 1.08 ± 0.062
[4]; 0.3704 µM
  relative viability: 1.06 ± 0.065
[4]; 1.111 µM
  relative viability: 1.02 ± 0.093
[4]; 3.333 µM
  relative viability: 0.959 ± 0.029
[4]; 10 µM
  relative viability: 0.41 ± 0.024
[5]; 0.00017 µM
  relative viability: 1.07 ± 0.015
[5]; 0.00051 µM
  relative viability: 1.06 ± 0.023
[5]; 0.00152 µM
  relative viability: 1.05 ± 0.021
[5]; 0.00457 µM
  relative viability: 1.06 ± 0.016
[5]; 0.01372 µM
  relative viability: 1.04 ± 0.035
[5]; 0.04115 µM
  relative viability: 1.04 ± 0.025
[5]; 0.1235 µM
  relative viability: 1.02 ± 0.054
[5]; 0.3704 µM
  relative viability: 1.01 ± 0.046
[5]; 1.111 µM
  relative viability: 0.999 ± 0.038
[5]; 3.333 µM
  relative viability: 0.943 ± 0.061
[5]; 10 µM
  relative viability: 0.638 ± 0.049
[6]; 0.00017 µM
  relative viability: 0.963 ± 0.04
[6]; 0.00051 µM
  relative viability: 0.971 ± 0.013
[6]; 0.00152 µM
  relative viability: 0.929 ± 0.025
[6]; 0.00457 µM
  relative viability: 0.96 ± 0.031
[6]; 0.01372 µM
  relative viability: 0.917 ± 0.022
[6]; 0.04115 µM
  relative viability: 0.873 ± 0.027
[6]; 0.1235 µM
  relative viability: 0.873 ± 0.043
[6]; 0.3704 µM
  relative viability: 0.861 ± 0.027
[6]; 1.111 µM
  relative viability: 0.783 ± 0.011
[6]; 3.333 µM
  relative viability: 0.5562 ± 0.0023
[6]; 10 µM
  relative viability: 0.148 ± 0.042
[7]; 0.00017 µM
  relative viability: 1.02 ± 0.045
[7]; 0.00051 µM
  relative viability: 1.03 ± 0.028
[7]; 0.00152 µM
  relative viability: 1.04 ± 0.058
[7]; 0.00457 µM
  relative viability: 1 ± 0.067
[7]; 0.01372 µM
  relative viability: 0.957 ± 0.018
[7]; 0.04115 µM
  relative viability: 0.876 ± 0.023
[7]; 0.1235 µM
  relative viability: 0.872 ± 0.055
[7]; 0.3704 µM
  relative viability: 0.818 ± 0.053
[7]; 1.111 µM
  relative viability: 0.702 ± 0.033
[7]; 3.333 µM
  relative viability: 0.33 ± 0.013
[7]; 10 µM
  relative viability: 0.181 ± 0.012
[8]; 0.00017 µM
  relative viability: 0.987 ± 0.047
[8]; 0.00051 µM
  relative viability: 0.991 ± 0.019
[8]; 0.00152 µM
  relative viability: 0.994 ± 0.023
[8]; 0.00457 µM
  relative viability: 1 ± 0.054
[8]; 0.01372 µM
  relative viability: 0.999 ± 0.045
[8]; 0.04115 µM
  relative viability: 0.954 ± 0.012
[8]; 0.1235 µM
  relative viability: 0.946 ± 0.04
[8]; 0.3704 µM
  relative viability: 0.913 ± 0.015
[8]; 1.111 µM
  relative viability: 0.839 ± 0.026
[8]; 3.333 µM
  relative viability: 0.673 ± 0.023
[8]; 10 µM
  relative viability: 0.183 ± 0.0094
[9]; 0.00017 µM
  relative viability: 1.1 ± 0.073
[9]; 0.00051 µM
  relative viability: 1.17 ± 0.069
[9]; 0.00152 µM
  relative viability: 1.13 ± 0.05
[9]; 0.00457 µM
  relative viability: 1.1 ± 0.087
[9]; 0.01372 µM
  relative viability: 1.08 ± 0.016
[9]; 0.04115 µM
  relative viability: 1.04 ± 0.023
[9]; 0.1235 µM
  relative viability: 1.06 ± 0.031
[9]; 0.3704 µM
  relative viability: 1.09 ± 0.045
[9]; 1.111 µM
  relative viability: 0.998 ± 0.038
[9]; 3.333 µM
  relative viability: 0.739 ± 0.014
[9]; 10 µM
  relative viability: 0.39 ± 0.013
[10]; 0.00017 µM
  relative viability: 1.03 ± 0.05
[10]; 0.00051 µM
  relative viability: 1.05 ± 0.075
[10]; 0.00152 µM
  relative viability: 1.07 ± 0.062
[10]; 0.00457 µM
  relative viability: 1.01 ± 0.083
[10]; 0.01372 µM
  relative viability: 0.989 ± 0.081
[10]; 0.04115 µM
  relative viability: 0.985 ± 0.073
[10]; 0.1235 µM
  relative viability: 0.949 ± 0.091
[10]; 0.3704 µM
  relative viability: 0.912 ± 0.067
[10]; 1.111 µM
  relative viability: 0.717 ± 0.045
[10]; 3.333 µM
  relative viability: 0.5 ± 0.05
[10]; 10 µM
  relative viability: 0.274 ± 0.063
[11]; 0.00017 µM
  relative viability: 1.01 ± 0.011
[11]; 0.00051 µM
  relative viability: 0.997 ± 0.049
[11]; 0.00152 µM
  relative viability: 0.954 ± 0.041
[11]; 0.00457 µM
  relative viability: 0.992 ± 0.021
[11]; 0.01372 µM
  relative viability: 0.984 ± 0.055
[11]; 0.04115 µM
  relative viability: 0.958 ± 0.077
[11]; 0.1235 µM
  relative viability: 0.953 ± 0.021
[11]; 0.3704 µM
  relative viability: 0.888 ± 0.029
[11]; 1.111 µM
  relative viability: 0.544 ± 0.013
[11]; 3.333 µM
  relative viability: 0.225 ± 0.0086
[11]; 10 µM
  relative viability: 0.0452 ± 0.00079
[12]; 0.00017 µM
  relative viability: 1.08 ± 0.038
[12]; 0.00051 µM
  relative viability: 1.05 ± 0.015
[12]; 0.00152 µM
  relative viability: 1.06 ± 0.051
[12]; 0.00457 µM
  relative viability: 1.02 ± 0.045
[12]; 0.01372 µM
  relative viability: 1.04 ± 0.015
[12]; 0.04115 µM
  relative viability: 1.03 ± 0.025
[12]; 0.1235 µM
  relative viability: 1.06 ± 0.028
[12]; 0.3704 µM
  relative viability: 1.04 ± 0.03
[12]; 1.111 µM
  relative viability: 0.92 ± 0.05
[12]; 3.333 µM
  relative viability: 0.612 ± 0.021
[12]; 10 µM
  relative viability: 0.355 ± 0.012
